# Assay results as given in patent US11066655B2, “RNA polymerase, methods of purification and methods of use” (President and Fellows of Harvard College, priority 2013, dated 2021).
# B1: Syn5 RNAP: single subunit DNA-dependent RNA polymerase from marine cyanophage Syn5, amino acid sequence SEQ ID NO:23 (protein)
# chain: MSFDLIARQLQRETEAAELARKRLQDARREANERSYASSNIESRKAIATFLDPIAQRIGERLFTLRRGTGAVDAAEVYKHLKNADHHHLALITMKTALDVLGKDPEPQIQQLTTAIGRNIQLELRLTYYAEENPELYKQASRFFHAGTGTRQKATVIKLKFNREGIEWDQWSRVTCHKVGQWLMLAMADVTGWIERATDRTSGGRKTKTRICYSREFLQHRDTILAAAEQLAFCQWPMLCPPIEWSNDHNGGYLSEQIRRVNPLIRKTGPLGTRKQGDIPLAMLNNLQGQAYKVNPEVLDIANHCYESNVTVGKFIRHAPLPVPPSPGEDCTEDQLTAYKRARREAEDFNAQISQKNWRTTEVMYVARKYADEASFWMPASFDYRGRVYFLNTALNPQGTDFDKALLYFAEEGPVNEWWLSFHVATTYGLDKETMVNRVQWARDNHELIDRIASDPVRHTEWHDADEPWCFLAACLEYKACVIDGTKQTSGLPIGIDATCSGLQHLAAMTRCGRTAALVNVTPTDKPADAYKTVAQASLKHLPKEQHEWITRKVTKRPVMCTPYGVTMSSARGYIRDQLVKDGHKEDLRSPGVLNGIVKAIFNEAIPEVIPGPVQVMAWLKRSAGQIIDRGDSTITWTTPSGFEVVQDLKKSKTYEVKTRIMGGARIKLQVGDGFTDEPDRDHHKSALAPNVVHSNDASLLHLTFAFWDKPFTVIHDCVLGRSCDMDQMGSDIRLHFAEMYKADVMQDWADQVGVELPVDLIKNTLDIDSVNQSLYFFS
# modifications: Amino acid sequence of a cyanophage Syn5 RNAP
# Assays:
# [1] = Chamberlin et al. (1973); cited from earlier work
# [2] = Solubility / precipitation of the purified enzyme; type: physicochemical; conditions: transcription reaction
# Procedure: His-tagged Syn5 RNAP was expressed from a pET24 vector harboring His-tagged Syn5 RNAP gene between the NdeI and NotI sites (Zhu et al. (2013)) and purified by Ni-NTA agarose and gel filtration chromatography. 2 M NaCl was present during the purification procedure and was removed by dialysis as the protein was finally concentrated. E. coli BL21(DE3) cells over-producing the protein were cultured in 2 L LB medium containing 50 µg/ml kanamycin at 37° C. until they reached an OD600 of approximately 1.2. The gene for Syn5 RNAP was induced by the addition of 0.5 mM IPTG at 16° C. and incubation continued for 3 hr. Cells were harvested, resuspended in 50 mM sodium phosphate, pH 8.0, 100 mM NaCl, and lysed by three cycles of freeze-thaw in the presence of 0.5 mg/ml lysozyme. 2 M NaCl was then added to the lysed cells and the cleared lysate was collected by centrifugation. 2 ml Ni-NTA agarose was added to the clear lysate and mixed at 4° C. overnight. The resin was then washed with 30 ml of wash buffer (50 mM sodium phosphate, pH 8.0, 2 M NaCl, and 20 mM imidazole). […] Fractions were analyzed on SDS-PAGE gels and those with Syn5 RNAP over 80% were collected and concentrated with Amicon Ultra-15 Centrifugal Filter Units (Millipore) to 1 ml. […] Fractions were analyzed on SDS-PAGE gels and those with homogenous Syn5 RNAP were pooled. […]
Molecule,temperature of maximum activity [1],final concentration in the reaction resulting in severe protein precipitation [2]
"T7 RNAP: RNA polymerase encoded by bacteriophage T7, from New England Biolabs [reference compound]",37 °C,
B1,,over 5 µM
